Laboratory results taken from patent US9403792B2, “Methods of using pyruvate kinase activators” (AGIOS PHARMACEUTICALS, INC, priority 2011, dated 2016).

How the values were obtained:
Format in all cases: biochemical
PKR wt = PKR wt (Homo sapiens, UniProt P30613); experiment: PKR WT Single Point Percent Activation Assay; details: compound at 1 μM
Experimental: PKR WT Single Point Percent Activation Assay
(§1) A compound described herein was diluted with DMSO and tested at 1 μM concentration. The enzyme was diluted in 1× Buffer: (100 mM KCl, 50 mM Tris 7.5, 5 mM MgCl2, 1 mM DTT, 0.03% BSA). 2 μL of compound solution was first added into wells, and then 180 μL of enzyme solution was added. Assays were assembled except for ADP, and plates were stored for 60 minutes at RT. 20 μL ADP was added to start the assay and assay output was evaluated using OD340 at SpectraMax. The assay was run at room temperature.
Final Concentration: PKR wt (100 ng/well), Tris pH 7.5 (50 mM), KCl (100 mM), MgCl2 (5 mM), ADP (0.48 mM), PEP (0.15 mM), NADH (180 μM), LDH (0.5 units, Sigma 59023), DTT (1 mM) and BSA (0.03%).

PKR R510Q [1] = biological target: T1, PKR R510Q (Homo sapiens, UniProt P30613, R510Q); experiment: PKR R510Q Single Point Percent Activation Assay; details: compound at 1 μM; for activation at 1 µM: read-out: % Act. R510Q
T1 sequence (P30613 whole entry R510Q): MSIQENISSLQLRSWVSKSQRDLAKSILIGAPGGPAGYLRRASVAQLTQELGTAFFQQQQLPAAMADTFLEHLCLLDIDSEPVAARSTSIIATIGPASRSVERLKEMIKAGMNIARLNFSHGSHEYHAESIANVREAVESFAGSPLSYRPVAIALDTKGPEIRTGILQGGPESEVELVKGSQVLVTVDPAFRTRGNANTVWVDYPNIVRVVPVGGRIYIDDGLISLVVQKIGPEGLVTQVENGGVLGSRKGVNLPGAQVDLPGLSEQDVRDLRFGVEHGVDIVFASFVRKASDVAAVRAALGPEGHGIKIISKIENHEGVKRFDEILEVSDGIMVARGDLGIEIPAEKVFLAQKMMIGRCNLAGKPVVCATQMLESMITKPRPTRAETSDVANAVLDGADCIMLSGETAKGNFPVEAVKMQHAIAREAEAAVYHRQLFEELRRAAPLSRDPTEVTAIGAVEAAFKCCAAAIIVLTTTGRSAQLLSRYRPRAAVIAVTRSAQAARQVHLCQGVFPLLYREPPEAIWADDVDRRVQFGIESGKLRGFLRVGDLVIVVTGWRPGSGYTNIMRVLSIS
Experimental: PKR R510Q Single Point Percent Activation Assay
as §1
Final Concentration: PKR R510Q (40 ng/well), Tris pH 7.5 (50 mM), KCl (100 mM), MgCl2 (5 mM), ADP (0.2 mM), PEP (0.11 mM), NADH (180 μM), LDH (0.5 units, Sigma 59023), DTT (1 mM) and BSA (0.03%).

PKR R532W [2] = biological target: T2, PKR R532W (Homo sapiens, UniProt P30613, R532W); experiment: PKR R532W Single Point Percent Activation Assay; details: compound at 1 μM; for activation at 1 µM: read-out: % Act. R532W
T2 sequence (P30613 whole entry R532W): as the sequence (P30613 whole entry R510Q) above, with Q510R, R532W counted along it
Experimental: PKR R532W Single Point Percent Activation Assay
as §1
Final Concentration: PKR R532W (100 ng/well), Tris pH 7.5 (50 mM), KCl (100 mM), MgCl2 (5 mM), ADP (0.36 mM), PEP (0.1 mM), NADH (180 μM), LDH (0.5 units, Sigma 59023), DTT (1 mM) and BSA (0.03%).

PKR T384W [3] = biological target: T3, PKR T384W (Homo sapiens, UniProt P30613, T384W); experiment: PKR T384W Single Point Percent Activation Assay; details: compound at 1 μM; for activation at 1 µM: read-out: % Act. T384W
T3 sequence (P30613 whole entry T384W): as the sequence (P30613 whole entry R510Q) above, with T384W, Q510R counted along it
Experimental: PKR T384W Single Point Percent Activation Assay
as §1, with “180 μL enzyme solution” for “180 μL of enzyme solution”
Final Concentration: PKR T384W soluble (300 ng/well), Tris pH 7.5 (50 mM), KCl (100 mM), MgCl2 (5 mM), ADP (0.08 mM), PEP (0.23 mM), NADH (180 μM), LDH (0.5 units, Sigma 59023), DTT (1 mM) and BSA (0.03%).

wild type PKR = wild type PKR (Homo sapiens, UniProt P30613); experiment: PKR Mutant Assay (AC50), wild type PKR; details: read-out: PKR WT AC50
Sequence of wild type PKR (P30613 whole entry): as the sequence (P30613 whole entry R510Q) above, with Q510R counted along it
Experimental: (§2) • PKR or PKR mutant enzyme solution was diluted in assay buffer. 2 μL of test compound was added into wells first, and then 180 μL reaction mix was added. • Reactions mixture with test compound was assembled except for ADP, and plates were stored for 60 minutes at room temperature. • 20 uL ADP was added to start reaction at room temperature and reaction progress was measured as changes in absorbance at 340 nm wavelength at room temperature. Test Compound Preparation: • Test compound stock was made at 100× concentration in 100% DMSO (10 mM) • 1 to 3 dilutions were made for 11 points (i.e. 50 μl of first concentration added to 100 μl 100% DMSO to yield 3.33 mM, 50 μl of this added to 100 μl DMSO to yield 1.11 mM, and so forth) • 1 to 100 dilution into assay (2 μl in 200 μl) yielded starting concentration of 100 μM, decreasing 3 fold for 11 points. Assay Buffer: 100 mM KCl, 50 mM Tris 7.5, 5 mM MgCl2, 1 mM DTT, 0.03% BSA Reaction Mixture: PKR mutant enzyme: 80-400 ng/well; ADP: 0.22-1.65 mM; PEP: 0.1-0.5 mM; NADH: 180 uM; LDH: 0.5 units (Sigma#59023); DTT: 1 mM; BSA: 0.03%.

PKR R510Q [4] = biological target: T1, PKR R510Q; experiment: PKR Mutant Assay (AC50), PKR R510Q
Experimental: as §2

PKR R532W [5] = biological target: T2, PKR R532W; experiment: PKR Mutant Assay (AC50), PKR R532W
Experimental: as §2

PKR T384W [6] = biological target: T3, PKR T384W; experiment: PKR Mutant Assay (AC50), PKR T384W
Experimental: as §2

PKR G332S = PKR G332S (Homo sapiens, UniProt P30613, G332S); experiment: PKR Mutant Assay (AC50), PKR G332S
Sequence of PKR G332S (P30613 whole entry G332S): as the sequence (P30613 whole entry R510Q) above, with G332S, Q510R counted along it
Experimental: as §2

PKR G364D = PKR G364D (Homo sapiens, UniProt P30613, G364D); experiment: PKR Mutant Assay (AC50), PKR G364D
Sequence of PKR G364D (P30613 whole entry G364D): as the sequence (P30613 whole entry R510Q) above, with G364D, Q510R counted along it
Experimental: as §2

PKR R479H = PKR R479H (Homo sapiens, UniProt P30613, R479H); experiment: PKR Mutant Assay (AC50), PKR R479H
Sequence of PKR R479H (P30613 whole entry R479H): as the sequence (P30613 whole entry R510Q) above, with R479H, Q510R counted along it
Experimental: as §2

Sequence of PKR wt (P30613 whole entry): as the sequence (P30613 whole entry R510Q) above, with Q510R counted along it

| activation at 1 µM (PKR wt) | activation at 1 µM (PKR R510Q [1]) | activation at 1 µM (PKR R532W [2]) | activation at 1 µM (PKR T384W [3]) | AC50 (wild type PKR) | AC50 (PKR R510Q [4]) | AC50 (PKR R532W [5]) | AC50 (PKR T384W [6]) | AC50 (PKR G332S) | AC50 (PKR G364D) | AC50 (PKR R479H) | Structure (SMILES) | % Act. WT (PKR wt) | % Act. R510Q (PKR R510Q [1]) | % Act. R532W (PKR R532W [2]) | % Act. T384W (PKR T384W [3]) |
| --- | --- | --- | --- | --- | --- | --- | --- | --- | --- | --- | --- | --- | --- | --- | --- |
| 101 to 500% | 101 to 500% | 1 to 100% | 1 to 100% |  |  |  |  |  |  |  | O=S(=O)(c1ccc2c(c1)OCCO2)N1CCN(S(=O)(=O)c2c(F)cccc2F)CC1 |  |  |  |  |
| 101 to 500% | 101 to 500% | 101 to 500% | 101 to 500% |  |  |  |  |  |  |  | O=S(=O)(c1ccc2c(c1)OCCO2)N1CCCN(S(=O)(=O)c2c(F)cccc2F)CC1 |  |  |  |  |
| 101 to 500% | 101 to 500% | 101 to 500% | 101 to 500% |  |  |  |  |  |  |  | COc1cc(F)c(S(=O)(=O)N2CCN(S(=O)(=O)c3cccc(N)c3)CC2)c(F)c1 |  |  |  |  |
| 1 to 100% | 1 to 100% | 101 to 500% | 1 to 100% |  |  |  |  |  |  |  | Nc1cccc(S(=O)(=O)N2CCN(S(=O)(=O)c3ccc4c(c3)OCCO4)CC2)c1 |  |  |  |  |
| 101 to 500% | 101 to 500% | 101 to 500% | 101 to 500% |  |  |  |  |  |  |  | Nc1cccc(S(=O)(=O)N2CCN(S(=O)(=O)c3c(F)cccc3F)CC2)c1 |  |  |  |  |
| 101 to 500% | 101 to 500% | 101 to 500% | 101 to 500% |  |  |  |  |  |  |  | COc1cc(F)c(S(=O)(=O)N2CCCN(S(=O)(=O)c3cccc(N)c3)CC2)c(F)c1 |  |  |  |  |
| 1 to 100% | 101 to 500% | 101 to 500% | 1 to 100% | < 100 nM | < 100 nM | < 100 nM | < 100 nM | < 100 nM | < 100 nM | < 100 nM | COc1cccc(Cn2ncc3c4sc([S+](C)[O-])cc4n(C)c3c2=O)c1 (centres unmarked) |  |  |  |  |
| 101 to 500% | > 500% | 101 to 500% | 101 to 500% | < 100 nM | < 100 nM | < 100 nM | < 100 nM | < 100 nM | < 100 nM | < 100 nM | CSc1cc2c(s1)c1cnn(Cc3cccc(O)c3)c(=O)c1n2C |  |  |  |  |
| 101 to 500% | 101 to 500% | 101 to 500% | 101 to 500% |  |  |  |  |  |  |  | CCCCCn1ncc2c3sc(C)cc3n(C)c2c1=O |  |  |  |  |
| 101 to 500% | 101 to 500% | 101 to 500% | 101 to 500% | 101 to 500 nM | 101 to 500 nM | > 500 nM | > 500 nM | > 500 nM | 101 to 500 nM | 101 to 500 nM | Cn1c2cc([S+](C)[O-])sc2c2cnn(Cc3ccccc3F)c(=O)c21 (centres unmarked) |  |  |  |  |
| 101 to 500% | 101 to 500% | 101 to 500% | 101 to 500% | < 100 nM | < 100 nM | < 100 nM | < 100 nM | < 100 nM | < 100 nM | < 100 nM | Cn1c2cc([S+](C)[O-])sc2c2cnn(Cc3cccc(O)c3)c(=O)c21 (centres unmarked) |  |  |  |  |
|  |  |  |  |  |  |  |  |  |  |  | Nc1cccc(S(=O)(=O)N2CCCN(S(=O)(=O)c3ccc4c(c3)OCCO4)CC2)c1 [drawing 17] | B (a % activation at 1 μM of from 101 to 500) | B (a % activation at 1 μM of from 101 to 500) | A (a % activation at 1 μM of from 1 to 100) | B (a % activation at 1 μM of from 101 to 500) |
| 101 to 500% | 101 to 500% |  | 101 to 500% |  |  |  |  |  |  |  | Nc1cccc(S(=O)(=O)N2CCCN(S(=O)(=O)c3ccc4c(c3)OCCO4)CC2)c1 [drawing 23] |  |  | B (a % activation at 1 μM of from 101 to 500) |  |
